Several values for one entry are separate records, joined by “and”; a condition that tells them apart may be missing. Equal values may be shown once. Toxic doses and inconclusive results are not listed. Cut-off read from the data, not from the text of the source: active = T/C of 150% or more; inactive = T/C below 125%.
Test system: L1210 leukemia ip in BDF1 mice, survival T/C
Assay: NCI In Vivo Anticancer Drug Screen. Data for tumor model L1210 Leukemia (intraperitoneal) in B6D2F1 (BDF1) mice
Details: endpoint: mean survival time, higher = longer survival
Summary of the method: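 Read-out is survival time, reported as the treated-group measurement over the vehicle-control measurement.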

[1] = dose: 50.0 mg/kg/injection, schedule: Q01DX001 (ip), vehicle: saline
[2] = dose: 100.0 mg/kg/injection, schedule: Q01DX001 (ip), vehicle: saline
[3] = dose: 200.0 mg/kg/injection, schedule: Q01DX001 (ip), vehicle: saline
[4] = dose: 400.0 mg/kg/injection, schedule: Q01DX001 (ip), vehicle: saline
[5] = dose: 100.0 mg/kg/injection, schedule: Q04DX002 (ip), vehicle: saline
[6] = dose: 200.0 mg/kg/injection, schedule: Q04DX002 (ip), vehicle: saline
[7] = dose: 75.0 mg/kg/injection, schedule: Q01DX001 (ip), vehicle: saline
[8] = dose: 150.0 mg/kg/injection, schedule: Q01DX001 (ip), vehicle: saline
[9] = dose: 100.0 mg/kg/injection, schedule: Q04DX003 (ip), vehicle: Klucel (hydroxypropylcellulose) (HPC)
[10] = dose: 200.0 mg/kg/injection, schedule: Q04DX003 (ip), vehicle: Klucel (hydroxypropylcellulose) (HPC)
[11] = dose: 400.0 mg/kg/injection, schedule: Q04DX003 (ip), vehicle: Klucel (hydroxypropylcellulose) (HPC)
[12] = dose: 25.0 mg/kg/injection, schedule: Q04DX003 (ip), vehicle: saline
[13] = dose: 50.0 mg/kg/injection, schedule: Q04DX003 (ip), vehicle: saline
[14] = dose: 75.0 mg/kg/injection, schedule: Q04DX003 (ip), vehicle: saline
[15] = dose: 100.0 mg/kg/injection, schedule: Q04DX003 (ip), vehicle: saline
[16] = dose: 200.0 mg/kg/injection, schedule: Q04DX003 (ip), vehicle: saline

Measured: T/C

CCN(CC)CCCCN(C)c1ccccc1
inactive: dose: 12.5 mg/kg/injection, schedule: Q01DX009 (ip), vehicle: saline with Tween-80 89 % of control | dose: 12.5 mg/kg/injection, schedule: Q04DX003 (ip), vehicle: acetone 93 % of control | dose: 25.0 mg/kg/injection, schedule: Q01DX009 (ip), vehicle: saline with Tween-80 97 % of control | dose: 25.0 mg/kg/injection, schedule: Q04DX003 (ip), vehicle: acetone 89 % of control | dose: 50.0 mg/kg/injection, schedule: Q01DX009 (ip), vehicle: saline with Tween-80 97 % of control | dose: 50.0 mg/kg/injection, schedule: Q04DX003 (ip), vehicle: acetone 98 % of control

CC(=O)OC1COC(n2cnc3c(=O)[nH]c(N)nc32)C(OC(C)=O)C1OC(C)=O (stereo unspecified)
inactive: [1] 104 % of control | [2] 104 % of control | [3] 95 % of control | [4] 93 % of control

C=C(CCC(=O)OC)C1=C(C)CC2OC(=O)C(=C)C2C1 (stereo unspecified)
inactive: dose: 50.0 mg/kg/injection, schedule: Q04DX002 (ip), vehicle: saline 120 % of control | [5] 113 % of control | [6] 100 % of control

COc1ccc2c(C(=O)O)c(C(=O)c3ccccc3)ccc2c1OC
inactive: dose: 100.0 mg/kg/injection, schedule: Q01DX001 (ip), vehicle: gum acacia 98 % of control | dose: 200.0 mg/kg/injection, schedule: Q01DX001 (ip), vehicle: gum acacia 98 % of control | dose: 400.0 mg/kg/injection, schedule: Q01DX001 (ip), vehicle: gum acacia 94 % of control

OCCN(CCO)Cc1cc(Cl)c2cccnc2c1O
inactive: [7] 102 % of control | [8] 104 % of control

C(COC1CC2CC1C1C2CC2OC21)OC1CC2CC1C1C2CC2OC21 (stereo unspecified)
inactive: dose: 50.0 mg/kg/injection, schedule: Q01DX001 (ip), vehicle: carboxymethylcellulose (CMC) 96 % of control | dose: 100.0 mg/kg/injection, schedule: Q01DX001 (ip), vehicle: carboxymethylcellulose (CMC) 98 % of control | dose: 200.0 mg/kg/injection, schedule: Q01DX001 (ip), vehicle: carboxymethylcellulose (CMC) 96 % of control | dose: 400.0 mg/kg/injection, schedule: Q01DX001 (ip), vehicle: carboxymethylcellulose (CMC) 102 % of control

Cc1nccn1C(/C(=N/O)c1ccccc1)c1ccccc1 (stereo unspecified)
inactive: dose: 100.0 mg/kg/injection, schedule: Q01DX009 (ip), vehicle: saline with Tween-80 96 % of control | dose: 200.0 mg/kg/injection, schedule: Q01DX009 (ip), vehicle: saline with Tween-80 96 % of control | dose: 400.0 mg/kg/injection, schedule: Q01DX009 (ip), vehicle: saline with Tween-80 94 % of control

O=C(c1ccccc1)C1C(C(=O)c2ccccc2)N1C1CCCCC1 (stereo unspecified)
inactive: [9] 91 % of control | [10] 91 % of control | [11] 96 % of control

Brc1ccc(C[n+]2ccccc2)cc1
inactive: dose: 12.5 mg/kg/injection, schedule: Q04DX003 (ip), vehicle: saline 98 % of control | dose: 18.75 mg/kg/injection, schedule: Q01DX009 (ip), vehicle: saline 93 % of control | [12] 97 % of control | dose: 37.5 mg/kg/injection, schedule: Q01DX009 (ip), vehicle: saline 91 % of control | [13] 105 % of control | [14] 92 % of control

Cc1cc2c(cc1C)N(C(=O)CN1CCSCC1)CC(=O)N2
inactive: [7] 107 % of control | [14] 93 % of control | [8] 98 % of control | dose: 150.0 mg/kg/injection, schedule: Q04DX003 (ip), vehicle: saline 94 % of control | dose: 300.0 mg/kg/injection, schedule: Q01DX001 (ip), vehicle: saline 109 % of control | dose: 300.0 mg/kg/injection, schedule: Q04DX003 (ip), vehicle: saline 91 % of control

Nc1cc(=O)[nH]c(=S)[nH]1
inactive: [5] 99 % of control | [6] 92 % of control | dose: 400.0 mg/kg/injection, schedule: Q04DX002 (ip), vehicle: saline 101 % of control

CCOC(C[N+](C)(C)C)OCC
inactive: [13] 93 % of control | [15] 97 % of control | [16] 101 % of control

Nc1cc(S(N)(=O)=O)ccc1SSc1ccc(S(N)(=O)=O)cc1N
inactive: dose: 100.0 mg/kg/injection, schedule: Q01DX009 (ip), vehicle: saline 105 % of control | [15] 96 % of control | dose: 200.0 mg/kg/injection, schedule: Q01DX009 (ip), vehicle: saline 99 % of control | [16] 94 % of control | dose: 400.0 mg/kg/injection, schedule: Q01DX009 (ip), vehicle: saline 110 % of control | dose: 400.0 mg/kg/injection, schedule: Q04DX003 (ip), vehicle: saline 89 % of control

Cc1noc(C)c1CC1(Cc2c(C)noc2C)C(=O)CCC2(C)CCCC=C21 (stereo unspecified)
inactive: dose: 100.0 mg/kg/injection, schedule: Q01DX009 (ip), vehicle: Klucel (hydroxypropylcellulose) (HPC) 92 % of control | [9] 95 % of control | dose: 200.0 mg/kg/injection, schedule: Q01DX009 (ip), vehicle: Klucel (hydroxypropylcellulose) (HPC) 98 % of control | [10] 93 % of control | dose: 400.0 mg/kg/injection, schedule: Q01DX009 (ip), vehicle: Klucel (hydroxypropylcellulose) (HPC) 97 % of control | [11] 96 % of control

COc1ccc2c3c(ccc2c1)C1=C(C(=O)O)CC(=O)C1(C)CC3 (stereo unspecified)
inactive: dose: 100.0 mg/kg/injection, schedule: Q01DX009 (sc), vehicle: steriod suspending solution 114 % of control | dose: 100.0 mg/kg/injection, schedule: Q04DX003 (sc), vehicle: steriod suspending solution 117 % of control | dose: 200.0 mg/kg/injection, schedule: Q01DX009 (sc), vehicle: steriod suspending solution 101 % of control | dose: 200.0 mg/kg/injection, schedule: Q04DX003 (sc), vehicle: steriod suspending solution 97 % of control | dose: 400.0 mg/kg/injection, schedule: Q01DX009 (sc), vehicle: steriod suspending solution 95 % of control | dose: 400.0 mg/kg/injection, schedule: Q04DX003 (sc), vehicle: steriod suspending solution 101 % of control

C[N+]1(C)C2CCC(OCc3ccccc3)C1COC2 (stereo unspecified)
inactive: [7] 98 % of control | [8] 105 % of control

CN1CC(C(=O)N2CCCCC2)C=C2c3cccc4[nH]cc(c34)CC21 (stereo unspecified)
inactive: dose: 3.12 mg/kg/injection, schedule: Q01DX009 (ip), vehicle: saline 95 % of control | dose: 6.25 mg/kg/injection, schedule: Q01DX009 (ip), vehicle: saline 97 % of control | dose: 12.5 mg/kg/injection, schedule: Q01DX009 (ip), vehicle: saline 98 % of control | dose: 25.0 mg/kg/injection, schedule: Q01DX009 (ip), vehicle: saline 104 % of control | [12] 100 % of control | dose: 50.0 mg/kg/injection, schedule: Q01DX009 (ip), vehicle: saline 93 % of control | [13] 98 % of control | [15] 97 % of control

Cc1cc(C)c(C(=O)CC(=O)c2cccnc2)c(C)c1
inactive: dose: 25.0 mg/kg/injection, schedule: Q01DX001 (ip), vehicle: saline 102 % of control | [1] 101 % of control and 104 % of control | [13] 97 % of control | [2] 102 % of control and 103 % of control | [15] 97 % of control | [3] 97 % of control and 98 % of control | [16] 98 % of control | [4] 103 % of control

CCCCCCCCCCCCCCCC/C(C)=C\C(=O)OC
inactive: dose: 100.0 mg/kg/injection, schedule: Q04DX003 (ip), vehicle: other 93 % of control | dose: 200.0 mg/kg/injection, schedule: Q04DX003 (ip), vehicle: other 93 % of control | dose: 400.0 mg/kg/injection, schedule: Q04DX003 (ip), vehicle: other 93 % of control

NC(=O)C(Cl)Cl
inactive: dose: 100.0 mg/kg/injection, schedule: Q04DX003 (ip), vehicle: saline with Tween-80 113 % of control | dose: 200.0 mg/kg/injection, schedule: Q04DX003 (ip), vehicle: saline with Tween-80 103 % of control | dose: 400.0 mg/kg/injection, schedule: Q04DX003 (ip), vehicle: saline with Tween-80 94 % of control

C(=C/c1ccccn1)/c1ccccc1
inactive: dose: 100.0 mg/kg/injection, schedule: Q04DX002 (ip), vehicle: Klucel (hydroxypropylcellulose) (HPC) 100 % of control | dose: 200.0 mg/kg/injection, schedule: Q04DX002 (ip), vehicle: Klucel (hydroxypropylcellulose) (HPC) 103 % of control | dose: 400.0 mg/kg/injection, schedule: Q04DX002 (ip), vehicle: Klucel (hydroxypropylcellulose) (HPC) 122 % of control

Source: PubChem BioAssay AID248 (DTP/NCI, 2004)
